In US10584115B2, “Substituted pyridine and pyrazine BMI-1 inhibitors” (PTC Therapeutics, Inc., priority 2013, dated 2020) one finds melting point and EC50 data, which are given here for 27 molecules.

For one data set, the system named is Bmi-1 protein. The data set is described as follows: Sandwich ELISA Assay (Bmi-1 protein level in HT-1080 cells after compound treatment). The class given is cell-based. An outline of the steps: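 HT-1080 cells exposed to compounds for 40–48 h at 37 °C (0.5% DMSO final), then lysed. Bmi-1 in lysates measured by sandwich ELISA (mouse monoclonal capture, rabbit anti-Bmi-1 detection, HRP anti-rabbit, TMB), read at OD450 with OD570 reference against a recombinant Bmi-1 standard curve (0–8000 pg/mL).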
On the technique in general: An ELISA detects its analyte on a solid surface through an enzyme-linked reagent.

Where [1] appears, read: Table 1, Bmi-1 sandwich ELISA, read-out: ELISA EC50 value for Bmi-1 protein.

Read-outs that look alike come from different tables or passages of the source.

One may read the melting point as the temperature, or range, at which the solid turns liquid. Broadly, the EC50 is the concentration at which the effect is half-maximal. As for `Cc1nc2c(F)cc(F)cn2c1-c1cc(C#N)cc(Nc2ccc(OC(F)(F)F)cc2)n1` [compound 443, 2-(6,8-difluoro-2-methylimidazo[1,2-a]pyridin-3-yl)-6-{[4-(trifluoromethoxy)phenyl]amino}pyridine-4-carbonitrile], the melting point was in the range of 213 to 216 °C. The EC50 in the data set with Bmi-1 protein (setting [1]) was in the range of 10 to 100 nM.
On the same counts, the results for `Cc1nc2c(F)cc(F)cn2c1-c1cc(C#N)cc(Nc2ccc(OC(F)F)c(F)c2)n1` [compound 444, 2-{[4-(difluoromethoxy)-3-fluorophenyl]amino}-6-(6,8-difluoro-2-methylimidazo[1,2-a]pyridin-3-yl)pyridine-4-carbonitrile] are 238 to 241 °C and 10 to 100 nM.
As to `Fc1cc(F)c2nc(C3CC3)n(-c3cncc(Nc4ccc(C(F)(F)F)cc4)n3)c2c1` [compound 461, 6-(2-cyclopropyl-4,6-difluoro-1H-benzimidazol-1-yl)-N-[4-(trifluoromethyl)phenyl]pyrazin-2-amine], the melting point was in the range of 247 to 249 °C. Also, in the data set with Bmi-1 protein (read-out: ELISA EC50 value for Bmi-1 protein, Table 1, Bmi-1 sandwich ELISA), the EC50 fell in the range of 10 to 100 nM.
Take `Fc1cc(F)c2nc(C3CC3)n(-c3cncc(Nc4ccc(OC(F)F)cc4)n3)c2c1` [compound 462, 6-(2-cyclopropyl-4,6-difluoro-1H-benzimidazol-1-yl)-N-[4-(difluoromethoxy)phenyl]pyrazin-2-amine]: the melting point was in the range of 202 to 203 °C. Besides, the EC50 with Bmi-1 protein (setting [1]) lay within 10 to 100 nM.
On the same counts, the results for `Fc1cc(F)c2nc(C3CC3)n(-c3cncc(Nc4ccc(OC(F)(F)F)cc4)n3)c2c1` [compound 463, 6-(2-cyclopropyl-4,6-difluoro-1H-benzimidazol-1-yl)-N-[4-(trifluoromethoxy)phenyl]pyrazin-2-amine] are 218 to 220 °C and 100 to 3000 nM.
Taken in the same sequence, the figures for `Fc1cc(F)c2nc(C3CC3)n(-c3cncc(Nc4ccc(C(F)(F)F)nc4)n3)c2c1` [compound 464, 6-(2-cyclopropyl-4,6-difluoro-1H-benzimidazol-1-yl)-N-[6-(trifluoromethyl)pyridin-3-yl]pyrazin-2-amine] were 267 to 270 °C and 10 to 100 nM.
On the same counts, the results for `N#Cc1cc(Nc2ccc(C(F)(F)F)cc2)nc(-c2c(C(F)F)nc3ccc(F)cn23)c1` [compound 466, 2-[2-(difluoromethyl)-6-fluoroimidazo[1,2-a]pyridin-3-yl]-6-{[4-(trifluoromethyl)phenyl]amino}pyridine-4-carbonitrile] are 249 to 251 °C and 10 to 100 nM.
Regarding `N#Cc1cc(Nc2ccc(OC(F)F)cc2)nc(-c2c(C(F)F)nc3ccc(F)cn23)c1` [compound 467, 2-{[4-(difluoromethoxy)phenyl]amino}-6-[2-(difluoromethyl)-6-fluoroimidazo[1,2-a]pyridin-3-yl]pyridine-4-carbonitrile], the melting point lay within 215 to 217 °C. Also, the concentration for a half-maximal effect (EC50) in the data set with Bmi-1 protein (setting [1]) is 1 to 10 nM.
On the same counts, the results for `Cc1cc(Nc2cc(C#N)cc(-c3c(C(F)F)nc4ccc(F)cn34)n2)cnc1OC(F)F` [compound 468, 2-{[6-(difluoromethoxy)-5-methylpyridin-3-yl]amino}-6-[2-(difluoromethyl)-6-fluoroimidazo[1,2-a]pyridin-3-yl]pyridine-4-carbonitrile] are 239 to 241 °C and 10 to 100 nM.
`N#Cc1cc(Nc2ccc(C(F)(F)F)nc2)nc(-c2c(C(F)F)nc3ccc(F)cn23)c1` [compound 469, 2-[2-(difluoromethyl)-6-fluoroimidazo[1,2-a]pyridin-3-yl]-6-{[6-(trifluoromethyl)pyridin-3-yl]amino}pyridine-4-carbonitrile] registered a melting point of 285 to 288 °C. Further, the EC50 in the data set on Bmi-1 protein (setting [1]) was 10 to 100 nM.
Turning to `Cc1cc(Nc2cc(C#N)cc(-c3c(C)nc4ccc(F)cn34)n2)cnc1OC(F)F` [compound 470, 2-{[6-(difluoromethoxy)-5-methylpyridin-3-yl]amino}-6-(6-fluoro-2-methylimidazo[1,2-a]pyridin-3-yl)pyridine-4-carbonitrile], the melting point is 219 to 222 °C. Also, in the data set with Bmi-1 protein (setting [1]), the EC50 lay within 100 to 3000 nM.
On the same counts, the results for `Cc1cc(Nc2cc(C#N)cc(-c3c(C)nc4c(F)cc(F)cn34)n2)cnc1OC(F)F` [compound 471, 2-{[6-(difluoromethoxy)-5-methylpyridin-3-yl]amino}-6-(6,8-difluoro-2-methylimidazo[1,2-a]pyridin-3-yl)pyridine-4-carbonitrile] are 236 to 238 °C and 100 to 3000 nM.
Taken in the same sequence, the figures for `Fc1ccc2nc(C(F)F)c(-c3cncc(Nc4ccc(C(F)(F)F)cc4)n3)n2c1` [compound 472, 6-[2-(difluoromethyl)-6-fluoroimidazo[1,2-a]pyridin-3-yl]-N-[4-(trifluoromethyl)phenyl]pyrazin-2-amine] were 180 to 182 °C and 1 to 10 nM.
On the same counts, the results for `Fc1ccc2nc(C(F)F)c(-c3cncc(Nc4ccc(OC(F)F)cc4)n3)n2c1` [compound 473, N-[4-(difluoromethoxy)phenyl]-6-[2-(difluoromethyl)-6-fluoroimidazo[1,2-a]pyridin-3-yl]pyrazin-2-amine] are 167 to 169 °C and less than 1 nM.
Regarding `N#Cc1cc(Nc2ccc(C(F)(F)F)cc2)nc(-n2c(C3CC3)nc3c(F)cc(F)cc32)c1` [compound 474, 2-(2-cyclopropyl-4,6-difluoro-1H-benzimidazol-1-yl)-6-{[4-(trifluoromethyl)phenyl]amino}pyridine-4-carbonitrile], the melting point is 233 to 235 °C. Further, in the data set on Bmi-1 protein (setting [1]), the EC50 lay within 10 to 100 nM.
On to `N#Cc1cc(Nc2ccc(OC(F)F)cc2)nc(-n2c(C3CC3)nc3c(F)cc(F)cc32)c1` [compound 475, 2-(2-cyclopropyl-4,6-difluoro-1H-benzimidazol-1-yl)-6-{[4-(difluoromethoxy)phenyl]amino}pyridine-4-carbonitrile], for which the melting point lay in the range of 168 to 170 °C. The EC50 in the data set on Bmi-1 protein (setting [1]) is 10 to 100 nM.
On the same counts, the results for `N#Cc1cc(Nc2ccc(OC(F)F)nc2)nc(-n2c(C3CC3)nc3c(F)cc(F)cc32)c1` [compound 478, 2-(2-cyclopropyl-4,6-difluoro-1H-benzimidazol-1-yl)-6-{[6-(difluoromethoxy)pyridin-3-yl]amino}pyridine-4-carbonitrile] are 207 to 209 °C and 10 to 100 nM.
`Fc1ccc2nc(C(F)F)c(-c3cncc(Nc4ccc(OC(F)F)nc4)n3)n2c1` [compound 479, N-[6-(difluoromethoxy)pyridin-3-yl]-6-[2-(difluoromethyl)-6-fluoroimidazo[1,2-a]pyridin-3-yl]pyrazin-2-amine] showed a melting point of 225 to 227 °C. In the data set on Bmi-1 protein (setting [1]), the EC50 fell in the range of 1 to 10 nM.
With `Cc1nc2ccc(F)cn2c1-c1cncc(Nc2ccc(OC(F)F)nc2)n1` [compound 480, N-[6-(difluoromethoxy)pyridin-3-yl]-6-(6-fluoro-2-methylimidazo[1,2-a]pyridin-3-yl)pyrazin-2-amine], the melting point was in the range of 204 to 207 °C. Besides, in the data set on Bmi-1 protein (setting [1]), the EC50 is 100 to 3000 nM.
Taken in the same sequence, the figures for `FC(F)c1nc2ccccc2n1-c1cncc(Nc2ccc(C(F)(F)F)cc2)n1` [compound 481, 6-[2-(difluoromethyl)-1H-benzimidazol-1-yl]-N-[4-(trifluoromethyl)phenyl]pyrazin-2-amine] were 229 to 231 °C and 10 to 100 nM.
Taken in the same sequence, the figures for `FC(F)Oc1ccc(Nc2cncc(-n3c(C(F)F)nc4ccccc43)n2)cc1` [compound 482, N-[4-(difluoromethoxy)phenyl]-6-[2-(difluoromethyl)-1H-benzimidazol-1-yl]pyrazin-2-amine] were 213 to 216 °C and 10 to 100 nM.
On the same counts, the results for `Fc1cc(Nc2cncc(-n3c(C(F)F)nc4ccccc43)n2)ccc1OC(F)F` [compound 483, N-[4-(difluoromethoxy)-3-fluorophenyl]-6-[2-(difluoromethyl)-1H-benzimidazol-1-yl]pyrazin-2-amine] are 220 to 222 °C and 10 to 100 nM.
For `N#Cc1cc(Nc2ccc(C(F)(F)F)cc2)nc(-n2c(C(F)F)nc3ccccc32)c1` [compound 484, 2-[2-(difluoromethyl)-1H-benzimidazol-1-yl]-6-{[4-(trifluoromethyl)phenyl]amino}pyridine-4-carbonitrile], the melting point was 225 to 227 °C. The 50% effective concentration (EC50) in the data set on Bmi-1 protein (setting [1]) fell in the range of 10 to 100 nM.
On the same counts, the results for `Fc1ccc2nc(C3CCC3)n(-c3cncc(Nc4ccc(C(F)(F)F)cc4)n3)c2c1` [compound 485, 6-(2-cyclobutyl-6-fluoro-1H-benzimidazol-1-yl)-N-[4-(trifluoromethyl)phenyl]pyrazin-2-amine] are 289 to 291 °C and 100 to 3000 nM.
On the same counts, the results for `Fc1ccc2nc(C(F)F)n(-c3cncc(Nc4ccc(C(F)(F)F)cc4)n3)c2c1` [compound 486, 6-[2-(difluoromethyl)-6-fluoro-1H-benzimidazol-1-yl]-N-[4-(trifluoromethyl)phenyl]pyrazin-2-amine] are 197 to 199 °C and 10 to 100 nM.
On the same counts, the results for `Cc1cn2c(-c3cc(C#N)cc(Nc4ccc(C(F)(F)F)cc4)n3)c(C)nc2c(C)n1` [compound 487, 2-{[4-(trifluoromethyl)phenyl]amino}-6-(2,6,8-trimethylimidazo[1,2-a]pyrazin-3-yl)pyridine-4-carbonitrile] are 237 to 238 °C and 10 to 100 nM.
In turn, `Cc1cn2c(-c3cncc(Nc4ccc(C(F)(F)F)cc4)n3)c(C)nc2c(C)n1` [compound 488, N-[4-(trifluoromethyl)phenyl]-6-(2,6,8-trimethylimidazo-[1,2-a]pyrazin-3-yl)pyrazin2-amine] showed a melting point of 102 to 105 °C. In addition, in the data set with Bmi-1 protein (setting [1]), the EC50 fell in the range of 10 to 100 nM.
